Measurements published in PubChem BioAssay (NCI).
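How tested: cells in 96-well plates exposed to compound for 48 hours at five concentrations. GI50 = concentration required for 50% inhibition of growth. TGI: total growth inhibition.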

What was measured:
Experiment in all cases: DTP human tumour cell line panel, 48 h
[1] = tested on: A498 renal
[2] = tested on: CAKI-1 renal
[3] = tested on: K-562 leukemia
[4] = tested on: KM12 colon
[5] = tested on: NCI-H460 lung
[6] = tested on: OVCAR-5 ovarian
[7] = tested on: RXF 393 renal
[8] = tested on: SF-295 CNS
[9] = tested on: T-47D breast
[10] = tested on: UACC-257 melanoma

Row | Structure (SMILES) | GI50 [1] [µM] | TGI [1] [µM] | GI50 [2] [µM] | TGI [2] [µM] | GI50 [3] [µM] | TGI [3] [µM] | GI50 [4] [µM] | TGI [4] [µM] | GI50 [5] [µM] | TGI [5] [µM] | GI50 [6] [µM] | TGI [6] [µM] | GI50 [7] [µM] | TGI [7] [µM] | GI50 [8] [µM] | TGI [8] [µM] | GI50 [9] [µM] | TGI [9] [µM] | GI50 [10] [µM] | TGI [10] [µM]
1 | Nc1nc(N)c2c(ccc3nccc32)[nH]1 | 18.3 | 98.3 | 2.82 | 12.8 | 0.319 | > 100 | 5.05 | 27.1 | 0.439 | 14.5 | 12.4 | > 100 | 3.09 | 17.8 | 1.95 | > 91.3 | 14.9 | > 80 | 1.54 | 17.9
2 | O=c1oc2ccc(Cl)cc2c(=O)n1-c1cc(C(F)(F)F)cc(C(F)(F)F)c1 | 0.0531 | 0.311 | 0.198 | 0.689 | 0.211 | > 38 | 0.342 | 1.32 | 0.308 | 5.16 | 0.423 | 17.4 | 0.228 | 0.746 | 0.206 | 0.504 | 0.229 | 2.4 | 0.233 | 1.6
3 | COc1cc(Cn2ccc3c2-c2oncc2CC3)cc(OC)c1 | 1.16 | 6.99 | 2.79 | 39.5 | 0.594 | > 100 | 2.02 | 28.5 | 3.11 | 13.3 | 10.1 | > 100 | 5.2 | 60 | 3.05 | 28.8 | 3.69 | 60.2 | 6.72 | 91.1
